Reference: patent publication US10150771B2, “Triazolopyrazinones as PDE1 inhibitors” (H. Lundbeck A/S, priority 2014, dated 2018)

Columns and labels:
Assay type in all cases: biochemical
PDE1A = PDE1A (Homo sapiens, UniProt P54750); experiment: PDE1 inhibition assay (SPA), PDE1A; conditions: for IC50: concentration required to reach 50% inhibition of the enzyme, 15 nM tritium labelled cAMP, read-out: PDE1A inhibition (nM or %): IC50; for inhibition at 10 µM: 1 h, % inhibition of the enzyme at a concentration of 10 micro molar of the compound, read-out: PDE1A inhibition (nM or %): % inhib
Chain of PDE1A (P54750 whole entry): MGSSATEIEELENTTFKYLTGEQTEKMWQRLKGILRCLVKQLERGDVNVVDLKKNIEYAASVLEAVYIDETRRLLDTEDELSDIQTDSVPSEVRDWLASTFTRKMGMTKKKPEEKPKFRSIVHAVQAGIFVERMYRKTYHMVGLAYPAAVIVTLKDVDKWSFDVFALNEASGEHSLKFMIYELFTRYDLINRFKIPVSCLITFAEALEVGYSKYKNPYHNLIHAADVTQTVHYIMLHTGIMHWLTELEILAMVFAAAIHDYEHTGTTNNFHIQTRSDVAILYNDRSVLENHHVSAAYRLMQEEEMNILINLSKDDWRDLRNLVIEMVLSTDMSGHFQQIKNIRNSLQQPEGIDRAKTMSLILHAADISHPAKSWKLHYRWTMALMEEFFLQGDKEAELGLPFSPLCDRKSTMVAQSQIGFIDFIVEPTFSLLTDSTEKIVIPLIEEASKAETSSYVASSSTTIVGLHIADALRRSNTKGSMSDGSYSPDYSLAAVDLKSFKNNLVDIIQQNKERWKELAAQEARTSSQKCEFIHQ
Method: (§1) PDE1 Inhibition Assay PDE1A, PDE1B and PDE1C assays were performed as follows: the assays were performed in 60 μL samples containing a fixed amount of the PDE1 enzym1 (sufficient to convert 20-25% of the cyclic nucleotide substrate), a buffer (50 mM HEPES pH 7.6; 10 mM MgCl2; 0.02% Tween20), 0.1 mg/ml BSA, 15 nM tritium labelled cAMP and varying amounts of inhibitors. Reactions were initiated by addition of the cyclic nucleotide substrate, and reactions were allowed to proceed for 1 h at room temperature before being terminated through mixing with 20 μL (0.2 mg) yttrium silicate SPA beads (PerkinElmer). The beads were allowed to settle for 1 h in the dark before the plates were counted in a Wallac 1450 Microbeta counter. The measured signals were converted to activity relative to an uninhibited control (100%) and IC50 values were calculated using XIFit (model 205, IDBS).

PDE1C = PDE1C (Homo sapiens, UniProt Q14123); experiment: PDE1 inhibition assay (SPA), PDE1C; conditions: for IC50: concentration required to reach 50% inhibition of the enzyme, 15 nM tritium labelled cAMP, read-out: PDE1C inhibition (nM or %): IC50
Chain of PDE1C (Q14123 whole entry): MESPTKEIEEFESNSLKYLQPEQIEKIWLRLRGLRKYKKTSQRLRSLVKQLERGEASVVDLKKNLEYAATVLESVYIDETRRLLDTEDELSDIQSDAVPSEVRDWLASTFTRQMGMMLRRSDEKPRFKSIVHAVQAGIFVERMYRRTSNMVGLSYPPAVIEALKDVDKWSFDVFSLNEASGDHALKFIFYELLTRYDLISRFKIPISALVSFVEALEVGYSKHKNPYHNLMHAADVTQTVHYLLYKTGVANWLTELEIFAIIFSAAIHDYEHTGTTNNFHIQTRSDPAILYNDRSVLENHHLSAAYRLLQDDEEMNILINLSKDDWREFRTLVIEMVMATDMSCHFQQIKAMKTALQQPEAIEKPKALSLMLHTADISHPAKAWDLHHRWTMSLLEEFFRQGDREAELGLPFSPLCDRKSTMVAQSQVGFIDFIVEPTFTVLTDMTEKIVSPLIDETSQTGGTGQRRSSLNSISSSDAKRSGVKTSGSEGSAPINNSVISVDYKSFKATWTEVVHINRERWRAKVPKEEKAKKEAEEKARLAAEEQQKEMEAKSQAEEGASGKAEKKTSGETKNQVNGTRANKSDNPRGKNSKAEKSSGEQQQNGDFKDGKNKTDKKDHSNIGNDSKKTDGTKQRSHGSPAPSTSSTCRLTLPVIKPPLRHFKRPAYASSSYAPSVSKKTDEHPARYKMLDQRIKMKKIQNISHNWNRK
Method: as §1

PDE1B = PDE1B (Homo sapiens, UniProt Q01064); experiment: PDE1 inhibition assay (SPA), PDE1B; conditions: for IC50: concentration required to reach 50% inhibition of the enzyme, 15 nM tritium labelled cAMP, read-out: PDE1B inhibition (nM or %): IC50; for inhibition at 10 µM: 1 h, % inhibition of the enzyme at a concentration of 10 micro molar of the compound, read-out: PDE1B inhibition (nM or %): % inhib
Chain of PDE1B (Q01064 whole entry): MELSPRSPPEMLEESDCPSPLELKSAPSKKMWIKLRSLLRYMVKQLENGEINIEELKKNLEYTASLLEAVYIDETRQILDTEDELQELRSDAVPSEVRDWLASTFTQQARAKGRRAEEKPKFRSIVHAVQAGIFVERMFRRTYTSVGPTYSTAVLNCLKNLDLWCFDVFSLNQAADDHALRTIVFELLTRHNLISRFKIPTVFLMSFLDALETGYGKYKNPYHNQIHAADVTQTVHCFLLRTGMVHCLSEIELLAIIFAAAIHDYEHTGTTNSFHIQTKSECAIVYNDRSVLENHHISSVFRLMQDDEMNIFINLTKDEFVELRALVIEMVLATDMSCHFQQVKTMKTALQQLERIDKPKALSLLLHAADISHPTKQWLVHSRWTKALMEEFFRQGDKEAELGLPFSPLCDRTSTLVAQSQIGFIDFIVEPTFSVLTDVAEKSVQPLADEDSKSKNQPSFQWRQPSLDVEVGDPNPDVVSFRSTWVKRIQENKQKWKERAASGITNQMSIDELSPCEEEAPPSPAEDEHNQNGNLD
Method: as §1

Structure (SMILES)	IC50 (PDE1A) [nM]	IC50 (PDE1C) [nM]	IC50 (PDE1B) [nM]	inhibition at 10 µM (PDE1A) [%]	inhibition at 10 µM (PDE1B) [%]	PDE1C inhibition (nM or %): % inhib (PDE1C; % inhibition of the enzyme at a concentration of 10 micro molar of the compound) [%]
O=c1c2nnc(C3CCOCC3)n2cc(Cc2ccc(F)cc2)n1Cc1cccc(F)c1 [7-(3-fluorobenzyl)-6-(4-fluorobenzyl)-3-(tetrahydro-2H-pyran-4-yl)-[1,2,4]triazolo[4,3-a]pyrazin-8(7H)-one]	46	10	43	–	–	–
O=c1c2nnc(C3CCOCC3)n2cc(Cc2ccccc2)n1Cc1cccc(F)c1 [6-benzyl-7-(3-fluorobenzyl)-3-(tetrahydro-2H-pyran-4-yl)-[1,2,4]triazolo[4,3-a]pyrazin-8(7H)-one]	32	5	18	–	–	–
CC(F)(F)c1nnc2c(=O)n(Cc3cccc(F)c3)ccn12 [3-(1,1-Difluoroethyl)-7-(3-fluorobenzyl)-[1,2,4]triazolo[4,3-a]pyrazin-8(7H)-one]	2500	550	2700	–	–	–
CCCc1nnc2c(=O)n(Cc3cccc(F)c3)c(CC)cn12 [6-ethyl-7-(3-fluorobenzyl)-3-propyl-[1,2,4]triazolo[4,3-a]pyrazin-8(7H)-one]	117	50	180	–	–	–
O=c1c2nnc(C3CCOCC3)n2cc(Br)n1CC1CCCCC1 [6-bromo-7-(cyclohexylmethyl)-3-(tetrahydro-2H-pyran-4-yl)-[1,2,4]triazolo[4,3-a]pyrazin-8(7H)-one]	12	3	17	–	–	–
CCCc1nnc2c(=O)n(CC3(C)CCCCC3)ccn12 [7-((1-methylcyclohexyl)methyl)-3-propyl-[1,2,4]triazolo[4,3-a]pyrazin-8(7H)-one]	1300	260	950	–	–	–
CCCc1nnc2c(=O)n(Cc3ccccc3C)ccn12 [7-(2-Methylbenzyl)-3-propyl-[1,2,4]triazolo[4,3-a]pyrazin-8(7H)-one]	–	2400	–	53	42	–
CCCc1nnc2c(=O)n(CC3CCC(C)CC3)ccn12 (racemic) [7-((4-methylcyclohexyl)methyl)-3-propyl-[1,2,4]triazolo[4,3-a]pyrazin-8(7H)-one]	83	65	53	–	–	–
Cc1ccccc1Cc1cn2c(C3CCOCC3)nnc2c(=O)n1CC1CCCC1 [7-(cyclopentylmethyl)-6-(2-methylbenzyl)-3-(tetrahydro-2H-pyran-4-yl)-[1,2,4]triazolo[4,3-a]pyrazin-8(7H)-one]	251	23	260	–	–	–
CCCc1nnc2c(=O)n(CC34CC5CC(CC(C5)C3)C4)ccn12 [7-(((3r,5r,7r)-adamantan-1-yl)methyl)-3-propyl-[1,2,4]triazolo[4,3-a]pyrazin-8(7H)-one]	180	63	210	–	–	–
Cc1cccc(Cc2cn3c(C4CCOCC4)nnc3c(=O)n2CC2CCCC2)c1 [7-(cyclopentylmethyl)-6-(3-methylbenzyl)-3-(tetrahydro-2H-pyran-4-yl)-[1,2,4]triazolo[4,3-a]pyrazin-8(7H)-one]	17	4	37	–	–	–
CCCc1nnc2c(=O)n(Cc3cccc(F)c3)c([C@H]3CCOC3)cn12 (single isomer, unassigned)	2980	290	1800	–	–	–
CCCc1nnc2c(=O)n(CC3CCCCCC3)ccn12 [7-(Cycloheptylmethyl)-3-propyl-[1,2,4]triazolo[4,3-a]pyrazin-8(7H)-one]	54	33	28	–	–	–
O=c1c2nnc(C3CCOCC3)n2cc(Cc2ccccc2)n1CC1CCCC1 [6-benzyl-7-(cyclopentylmethyl)-3-(tetrahydro-2H-pyran-4-yl)-[1,2,4]triazolo[4,3-a]pyrazin-8(7H)-one]	65	5	46	–	–	–
CC(C)CCn1ccn2c(C3CCOCC3)nnc2c1=O [7-isopentyl-3-(tetrahydro-2H-pyran-4-yl)-[1,2,4]triazolo[4,3-a]pyrazin-8(7H)-one]	–	1100	–	47	55	–
CCCc1nnc2c(=O)n(Cc3ccc(OC)cc3)c(C)cn12 [7-(4-methoxybenzyl)-6-methyl-3-propyl-[1,2,4]triazolo[4,3-a]pyrazin-8(7H)-one]	66	44	32	–	–	–

Structure (SMILES)	IC50 (PDE1A) [nM]	IC50 (PDE1C) [nM]	IC50 (PDE1B) [nM]	inhibition at 10 µM (PDE1A) [%]	inhibition at 10 µM (PDE1B) [%]	PDE1C inhibition (nM or %): % inhib (PDE1C; % inhibition of the enzyme at a concentration of 10 micro molar of the compound) [%]
Cc1ccccc1Cc1cn2c(C3CCOCC3)nnc2c(=O)n1Cc1cccc(F)c1 [7-(3-fluorobenzyl)-6-(2-methylbenzyl)-3-(tetrahydro-2H-pyran-4-yl)-[1,2,4]triazolo[4,3-a]pyrazin-8(7H)-one]	91	17	82	–	–	–
Cc1ccc(Cc2cn3c(C4CCOCC4)nnc3c(=O)n2CC2CCCCC2)cc1 [7-(cyclohexylmethyl)-6-(4-methylbenzyl)-3-(tetrahydro-2H-pyran-4-yl)-[1,2,4]triazolo[4,3-a]pyrazin-8(7H)-one]	1	1	2	–	–	–
CCCCC(CC)c1nnc2c(=O)n(Cc3cccc(F)c3)ccn12 (stereo not drawn) [7-(3-Fluorobenzyl)-3-(heptan-3-yl)-[1,2,4]triazolo[4,3-a]pyrazin-8(7H)-one]	3200	480	1600	–	–	–
CCCc1nnc2c(=O)n(Cc3ccccc3)ccn12 [7-Benzyl-3-propyl-[1,2,4]triazolo[4,3-a]pyrazin-8(7H)-one]	770	110	400	–	–	–
Cc1ccc(Cc2cn3c(C4CCOCC4)nnc3c(=O)n2CC2CCCC2)cc1 [7-(cyclopentylmethyl)-6-(4-methylbenzyl)-3-(tetrahydro-2H-pyran-4-yl)-[1,2,4]triazolo[4,3-a]pyrazin-8(7H)-one]	21	3	19	–	–	–
O=c1c2nnc(C3CCOCC3)n2ccn1Cc1cccc(F)c1 [7-(3-Fluorobenzyl)-3-(tetrahydro-2H-pyran-4-yl)-[1,2,4]triazolo[4,3-a]pyrazin-8(7H)-one]	730	140	680	–	–	–
O=c1c2nnc(C3CCOCC3)n2cc(Br)n1CC1CCCC1 [6-bromo-7-(cyclopentylmethyl)-3-(tetrahydro-2H-pyran-4-yl)-[1,2,4]triazolo[4,3-a]pyrazin-8(7H)-one]	164	6	140	–	–	–
CCCCCCn1ccn2c(C3CCOCC3)nnc2c1=O [7-Hexyl-3-(tetrahydro-2H-pyran-4-yl)-[1,2,4]triazolo[4,3-a]pyrazin-8(7H)-one]	1260	1100	1000	–	–	–
O=c1c2nnc(C3COC3)n2ccn1Cc1cccc(F)c1 [7-(3-Fluorobenzyl)-3-(oxetan-3-yl)-[1,2,4]triazolo[4,3-a]pyrazin-8(7H)-one]	–	1700	7200	67	–	–
CCCc1nnc2c(=O)n(Cc3cccc(F)c3)cc(C)n12 [7-(3-fluorobenzyl)-5-methyl-3-propyl-[1,2,4]triazolo[4,3-a]pyrazin-8(7H)-one]	1360	260	1000	–	–	–
O=c1c2nnc(C3CCOCC3)n2cc(Cc2cccc(F)c2)n1Cc1cccc(F)c1 [6,7-bis(3-fluorobenzyl)-3-(tetrahydro-2H-pyran-4-yl)-[1,2,4]triazolo[4,3-a]pyrazin-8(7H)-one]	47	8	40	–	–	–
O=c1c2nnc(C3CCOCC3)n2cc(Cc2ccc(F)cc2)n1CC1CCCCCC1 [7-(cycloheptylmethyl)-6-(4-fluorobenzyl)-3-(tetrahydro-2H-pyran-4-yl)-[1,2,4]triazolo[4,3-a]pyrazin-8(7H)-one]	3	4	9	–	–	–
CCCc1nnc2c(=O)n(CC3COC3)ccn12 [7-(Oxetan-3-ylmethyl)-3-propyl-[1,2,4]triazolo[4,3-a]pyrazin-8(7H)-one]	–	–	–	37	46	57
CCCc1nnc2c(=O)n(CC3CCCCC3C)ccn12 (mixture of isomers) [7-((2-methylcyclohexyl)methyl)-3-propyl-[1,2,4]triazolo[4,3-a]pyrazin-8(7H)-one]	320	240	260	–	–	–
O=c1c2nnc(C3CCOCC3)n2cc(Cc2ccc(-c3ccccc3)cc2)n1CC1CCCCC1 [6-([1,1′-biphenyl]-4-ylmethyl)-7-(cyclohexylmethyl)-3-(tetrahydro-2H-pyran-4-yl)-[1,2,4]triazolo[4,3-a]pyrazin-8(7H)-one]	0.33	0.1	0.17	–	–	–
CCCc1nnc2c(=O)n(Cc3ccc(C(F)(F)F)cc3)ccn12 [3-Propyl-7-(4-(trifluoromethyl)benzyl)-[1,2,4]triazolo[4,3-a]pyrazin-8(7H)-one]	1200	2100	570	–	–	–
